{"source": "patent US20020022826A1", "about": "“Burst electrode” (priority 2000, published 2002)", "conditions": "bare metal electrodes, nitrogen atmosphere", "source_text": "Using stainless steel electrodes in aqueous NaPSS electrolyte, conditions were developed for the reproducible synthesis, loading, and release of bioactive cations from PPy/PSS films. After PPy/PSS film preparation, the polymer-modified electrodes were removed from the electrolyte, washed with water, and their redox properties studied by cyclic voltammetry (CV)."}
{"smiles": "NCCc1ccc(O)c(O)c1", "note": "[Dopamine, dopamine]", "values": [{"measurement": "potential at which dopamine oxidizes", "value": "+0.6 V vs. Ag/AgCl"}]}
